Experimental data as given in patent US6051596A, “Immunosuppressive compositions” (AnorMED, Inc., priority 1997, dated 2000).

System: Lewis-Brown Norway F1 hybrid cardiac allografts in Lewis rat recipients
Assay: Acute cardiac allograft rejection model in rats (procedure of Kupiec-Weglinski)
Type: in vivo
Settings: for GRAFT SURVIVAL (days) MEAN ± SD: N=7
Description: The therapeutic efficacy of a pharmaceutical composition of the invention was tested according to the procedure of Kupiec-Weglinski, J. W., et al., (1988) Transplant Proc. 2:207-216 (hereinafter "Kupiec-Weglinski") to determine its in vivo potency as an acute transplantation/graft rejection modulator.
Briefly, to preform these experiments, the following protocol was employed. Male inbred adult rats (Lewis-Brown Norway F1 Hybrid rats, obtained from Harlan sprague-Dawley Inc., Indianapolis, Ind.) were used. Lewis-Brown Norway F1 Hybrid cardiac allografts were transplanted to the abdominal great vessels of Lewis recipients. The animals were administered compounds according to the following five distinct regimens.
Protocol I. Pretreatment Protocol--20 mg/kg/day of Compound A was administered orally for 7 consecutive days prior to transplantation (days -7 to -1).
Protocol II Treatment Protocol--20 mg/kg/day of Compound A was administered orally for 7 consecutive post-transplant days (days 0-6) followed by intermittent 5 day courses (days 9-13 and 16-20).
Protocol III Pretreatment and Treatment Protocol--20 mg/kg/day of Compound A was administered orally for 7 consecutive days prior to transplantation (days -7 to -1) followed by intermittent 5 day courses (days 9-13 and 16-20).
Ventricular contractions were assessed daily by palpation through the recipient flank. Rejection was defined as the day of cessation of myocardial contractions and confirmed histologically.

CCCC1(CCC)CCC2(CCN(CCCN(C)C)C2)CC1 [Compound A, N,N-dimethyl-8,8-dipropyl-2-azaspiro[4,5]-decane-2-propanamine]
GRAFT SURVIVAL (days) MEAN ± SD (Protocol I pretreatment: 20 mg/kg/day orally, days -7 to -1): 14.7 ± 5.8 days | GRAFT SURVIVAL (days) MEAN ± SD (Protocol II treatment: 20 mg/kg/day orally, days 0-6, then days 9-13 and 16-20): 16.7 ± 2.0 days | GRAFT SURVIVAL (days) MEAN ± SD (Protocol III pretreatment and treatment: 20 mg/kg/day orally, days -7 to -1, then days 9-13 and 16-20): 16.0 ± 4.3 days | average graft survival time (single compound protocols (pretreatment, treatment or both), 20 mg/kg/day orally, untreated average 7 days): 16 days
